Laboratory results: PMC10692362 (Acta Pharmaceutica Sinica. B, 2023)

System: T-47D^Y537S cells
Assay: Cell viability assay
Format: cell-based, human
Conditions: Homo sapiens, 72 h, read-out: T-47D^Y537S IC50

CC(C)=CC(=O)Nc1ccc(C2=C(c3ccc(O)cc3)C3OC2CC3S(=O)(=O)N(CC(F)(F)F)c2ccc(O)cc2)cc1 (stereo not shown) [Compound 29c, N-(4-(3-(4-Hydroxyphenyl)-5-(N-(4-hydroxyphenyl)-N-(2,2,2-trifluoroethyl)sulfamoyl)-7-oxabicyclo[2.2.1]hept-2-en-2-yl)phenyl)-3-methylbut-2-enamide]
IC50: 880 ± 150 nM
